Results taken from patent publication US12594282B2, “Use of small molecule compounds in the treatment of diseases mediated by lung epithelial cell injury and/or vascular endothelial cell injury” (Guangzhou Cellprotek Pharmaceutical Co., Ltd., priority 2020, dated 2026).

Key:
[1] = tested on: HPAEpiC cells; experiment: LPS+hypoxia model, LDH release, alveolar epithelial cells; type: cell-based, human
Method: HPAEpiC cells were cultured with alveolar epithelial cell medium. When the cells grew to about 80% confluence, the cells were digested with 0.25% trypsin, and then pipetted evenly with alveolar epithelial cell medium. The cell concentration was adjusted to 2×10^5 cells/mL, and the cells were seeded in a 24-well plate at 400 uL/well. The experiment was conducted when the cells grew to about 70% confluence.
The hypoxia workstation was set to have an oxygen concentration of 1% (1% O2, 5% CO2, 94% a temperature to 37° C., and a humidity of 85%. After the conditions in the hypoxia workstation were stable, 1 mg/mL LPS was directly added to the cells to make the final concentration of LPS […], and then the cells were cultured in the hypoxia workstation for 24 hours.
Before being subjected to the model, the cells in the drug group were pre-incubated with vehicle (20% hydroxypropyl cyclodextrin solution) or drug (the final concentration of YC-6 was 1 μM, 5 μM, 10 μM) for 1 hour, and then added with LPS, and placed in the hypoxia workstation for constructing the model, until the end of the experiment. The model control group was not treated with any drug, and the normal group was placed in a cell incubator for routine culturing. 10 μM dexamethasone was used as the drug control. Three replicates were performed for each treatment group.

[2] = tested on: primary cerebellar granule neuron; experiment: Intracellular lactate assay in glutamate-stimulated primary cerebellar granule neurons; type: cell-based, mice; conditions: 10 μM, pre-incubation 20 mins; 200 μM glutamate for 15 mins
Method: The cells were obtained from SD P7-8 neonatal mice. The cerebellum was taken, and the meninges and blood vessels were removed using microtweezers; the isolated cerebellar tissue was transferred to another dish containing dissection solution. The tissue was cut into pieces as small as possible using a tissue scissor. Digestion: The tissue in pieces was added into 7 mL of 0.25% trypsin digestive solution with a pipet, and was digested at 37° C. for 15 mins; the bench surface was cleaned and the instruments were washed. The container was turned upside down several times every five minutes to bring the tissue into better contact with the digestive solution. End of digestion: After the digestion, it can be seen that the tissue was sticked together and suspended in the liquid due to cell disruption and release of DNA. The digestion was terminated by adding 3 mL of RNase-containing 10% FBS DMEM medium. […] The cells were counted with a hand-held cell counter, and the seeding density was 4.0-5.0×10^5 cells/mL. […]
Pretreatment: The number of cells used for the determination of intracellular lactate content was 1-2*10^6. […] Centrifugation was performed at 16,000 g for 5 mins at 4° C., 160 μL of supernatant was collected into a new EP tube, and the remaining supernatant was subjected to BCA protein quantification. […]

Structure (SMILES): C[C@@]12CCCC1C1C[C@@H](O)[C@]3(O)C[C@@H](O)CC[C@]3(C)C1CC2 (stereo partly drawn) [YC-6, 5α-androst-3β,5,6β-triol]
- protective effect compared with 10 μM dexamethasone (LDH release) ([1]; 10 μM, LPS and 1% O2 for 24 hours): significantly better protective effect than dexamethasone
- damage to alveolar epithelial cells (LDH release) induced by hypoxia and LPS ([1]; 1, 5, 10 μM, 1 hour pre-incubation, 20 μg/mL LPS and 1% O2 for 24 hours): dose-dependently reduce damage to alveolar epithelial cells
- glutamate-induced intracellular accumulation of lactate [2]: significantly inhibited the accumulation of lactate
